Calls of active or inactive are those of the source.
Legend:
[1] = system: Streptococcus sp. 'group A'; assay: Streptococcus pyogenes SK(-)GAS viability under kanamycin – luminescence, BacTiterGlo, confirmation, counter-screen for streptokinase expression inhibitor project, dose response (AID 1900); assay type: functional, organism-based
[2] = NIH3T3 cell viability loss – ATP luminescence, mouse fibroblasts, counter-screen, dose response (AID 2010); assay type: functional, cell-based;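 also: cells exposed to compound for about 90 hours before reading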
[3] = system: Streptococcus; assay: GAS UMAA2166 growth inhibition – luminescence, BacTiterGlo, counter-screen for streptokinase expression inhibitor project, dose response (AID 1915); assay type: functional, organism-based;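 also: potency for reduction of bacterial viability or growth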
[4] = Trypanosoma cruzi growth suppression in host cells – NIH3T3 host cells, beta-gal luminescence, confirmation (AID 2044); assay type: functional, cell-based;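 also: intracellular parasites grown in NIH/3T3 mouse fibroblasts as host cells; luminescent beta-galactosidase reporter signal from transgenic T. cruzi replicating inside host cells; inhibitors lower the luminescence signal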
[5] = molecular target: T1, Streptokinase A (Streptococcus pyogenes serotype M1, UniProt P10520); assay: viability-normalized secreted streptokinase activity reduction – plasminogen activation absorbance, OD405, dose response (AID 1914); assay type: functional, Streptococcus pyogenes M1 GAS;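 also: secreted streptokinase activity via plasminogen activation per viability signal from cell pellet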
T1 sequence (P10520 whole entry): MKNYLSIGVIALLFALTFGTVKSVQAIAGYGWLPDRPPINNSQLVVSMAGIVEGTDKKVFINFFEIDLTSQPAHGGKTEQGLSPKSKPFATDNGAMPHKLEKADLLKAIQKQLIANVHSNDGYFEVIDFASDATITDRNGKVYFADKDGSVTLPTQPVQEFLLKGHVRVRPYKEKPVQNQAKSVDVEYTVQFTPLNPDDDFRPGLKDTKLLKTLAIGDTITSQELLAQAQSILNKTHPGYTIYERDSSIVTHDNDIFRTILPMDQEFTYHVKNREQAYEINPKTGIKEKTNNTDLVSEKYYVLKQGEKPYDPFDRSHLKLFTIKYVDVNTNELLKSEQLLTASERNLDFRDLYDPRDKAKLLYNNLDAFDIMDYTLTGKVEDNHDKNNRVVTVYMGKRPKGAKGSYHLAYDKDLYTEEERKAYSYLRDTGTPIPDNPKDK

[6] = molecular target: T2, Oxysterols receptor LXR-beta (Homo sapiens, UniProt P55055); assay type: functional, cell-based;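 also: agonist activity at LXR measured by a cell-based luminescence readout across a dose range, run as a counterscreen for daf-12 agonists; HEK293 cells with Gal4-LXR fusion and GAL4-driven luciferase reporter; potency for activation of Gal4-LXR reporter so compounds are agonists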
T2 sequence (P55055 whole entry): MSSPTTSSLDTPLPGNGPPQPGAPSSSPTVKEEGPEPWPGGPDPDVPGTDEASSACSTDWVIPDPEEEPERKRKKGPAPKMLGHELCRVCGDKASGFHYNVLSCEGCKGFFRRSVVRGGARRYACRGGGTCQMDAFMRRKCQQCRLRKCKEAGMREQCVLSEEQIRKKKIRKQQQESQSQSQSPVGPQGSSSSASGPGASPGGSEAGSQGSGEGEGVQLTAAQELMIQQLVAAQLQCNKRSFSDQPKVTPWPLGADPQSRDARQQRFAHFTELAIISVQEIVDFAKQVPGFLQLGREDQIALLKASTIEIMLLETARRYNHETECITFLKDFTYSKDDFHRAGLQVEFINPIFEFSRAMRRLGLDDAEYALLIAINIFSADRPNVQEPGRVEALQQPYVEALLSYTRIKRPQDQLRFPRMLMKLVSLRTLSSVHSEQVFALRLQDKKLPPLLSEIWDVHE

[7] = molecular target: T3, Fatty acid synthase (Homo sapiens, UniProt P49327); assay: inhibition of human FAS-TE enzyme activity – biochemical, kinetic fluorescence intensity, dose response (AID 624326); assay type: functional;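 also: rate of fluorescence rise from hydrolysis of a fluorogenic O-methyl fluorescein ester substrate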
T3 sequence (P49327 whole entry): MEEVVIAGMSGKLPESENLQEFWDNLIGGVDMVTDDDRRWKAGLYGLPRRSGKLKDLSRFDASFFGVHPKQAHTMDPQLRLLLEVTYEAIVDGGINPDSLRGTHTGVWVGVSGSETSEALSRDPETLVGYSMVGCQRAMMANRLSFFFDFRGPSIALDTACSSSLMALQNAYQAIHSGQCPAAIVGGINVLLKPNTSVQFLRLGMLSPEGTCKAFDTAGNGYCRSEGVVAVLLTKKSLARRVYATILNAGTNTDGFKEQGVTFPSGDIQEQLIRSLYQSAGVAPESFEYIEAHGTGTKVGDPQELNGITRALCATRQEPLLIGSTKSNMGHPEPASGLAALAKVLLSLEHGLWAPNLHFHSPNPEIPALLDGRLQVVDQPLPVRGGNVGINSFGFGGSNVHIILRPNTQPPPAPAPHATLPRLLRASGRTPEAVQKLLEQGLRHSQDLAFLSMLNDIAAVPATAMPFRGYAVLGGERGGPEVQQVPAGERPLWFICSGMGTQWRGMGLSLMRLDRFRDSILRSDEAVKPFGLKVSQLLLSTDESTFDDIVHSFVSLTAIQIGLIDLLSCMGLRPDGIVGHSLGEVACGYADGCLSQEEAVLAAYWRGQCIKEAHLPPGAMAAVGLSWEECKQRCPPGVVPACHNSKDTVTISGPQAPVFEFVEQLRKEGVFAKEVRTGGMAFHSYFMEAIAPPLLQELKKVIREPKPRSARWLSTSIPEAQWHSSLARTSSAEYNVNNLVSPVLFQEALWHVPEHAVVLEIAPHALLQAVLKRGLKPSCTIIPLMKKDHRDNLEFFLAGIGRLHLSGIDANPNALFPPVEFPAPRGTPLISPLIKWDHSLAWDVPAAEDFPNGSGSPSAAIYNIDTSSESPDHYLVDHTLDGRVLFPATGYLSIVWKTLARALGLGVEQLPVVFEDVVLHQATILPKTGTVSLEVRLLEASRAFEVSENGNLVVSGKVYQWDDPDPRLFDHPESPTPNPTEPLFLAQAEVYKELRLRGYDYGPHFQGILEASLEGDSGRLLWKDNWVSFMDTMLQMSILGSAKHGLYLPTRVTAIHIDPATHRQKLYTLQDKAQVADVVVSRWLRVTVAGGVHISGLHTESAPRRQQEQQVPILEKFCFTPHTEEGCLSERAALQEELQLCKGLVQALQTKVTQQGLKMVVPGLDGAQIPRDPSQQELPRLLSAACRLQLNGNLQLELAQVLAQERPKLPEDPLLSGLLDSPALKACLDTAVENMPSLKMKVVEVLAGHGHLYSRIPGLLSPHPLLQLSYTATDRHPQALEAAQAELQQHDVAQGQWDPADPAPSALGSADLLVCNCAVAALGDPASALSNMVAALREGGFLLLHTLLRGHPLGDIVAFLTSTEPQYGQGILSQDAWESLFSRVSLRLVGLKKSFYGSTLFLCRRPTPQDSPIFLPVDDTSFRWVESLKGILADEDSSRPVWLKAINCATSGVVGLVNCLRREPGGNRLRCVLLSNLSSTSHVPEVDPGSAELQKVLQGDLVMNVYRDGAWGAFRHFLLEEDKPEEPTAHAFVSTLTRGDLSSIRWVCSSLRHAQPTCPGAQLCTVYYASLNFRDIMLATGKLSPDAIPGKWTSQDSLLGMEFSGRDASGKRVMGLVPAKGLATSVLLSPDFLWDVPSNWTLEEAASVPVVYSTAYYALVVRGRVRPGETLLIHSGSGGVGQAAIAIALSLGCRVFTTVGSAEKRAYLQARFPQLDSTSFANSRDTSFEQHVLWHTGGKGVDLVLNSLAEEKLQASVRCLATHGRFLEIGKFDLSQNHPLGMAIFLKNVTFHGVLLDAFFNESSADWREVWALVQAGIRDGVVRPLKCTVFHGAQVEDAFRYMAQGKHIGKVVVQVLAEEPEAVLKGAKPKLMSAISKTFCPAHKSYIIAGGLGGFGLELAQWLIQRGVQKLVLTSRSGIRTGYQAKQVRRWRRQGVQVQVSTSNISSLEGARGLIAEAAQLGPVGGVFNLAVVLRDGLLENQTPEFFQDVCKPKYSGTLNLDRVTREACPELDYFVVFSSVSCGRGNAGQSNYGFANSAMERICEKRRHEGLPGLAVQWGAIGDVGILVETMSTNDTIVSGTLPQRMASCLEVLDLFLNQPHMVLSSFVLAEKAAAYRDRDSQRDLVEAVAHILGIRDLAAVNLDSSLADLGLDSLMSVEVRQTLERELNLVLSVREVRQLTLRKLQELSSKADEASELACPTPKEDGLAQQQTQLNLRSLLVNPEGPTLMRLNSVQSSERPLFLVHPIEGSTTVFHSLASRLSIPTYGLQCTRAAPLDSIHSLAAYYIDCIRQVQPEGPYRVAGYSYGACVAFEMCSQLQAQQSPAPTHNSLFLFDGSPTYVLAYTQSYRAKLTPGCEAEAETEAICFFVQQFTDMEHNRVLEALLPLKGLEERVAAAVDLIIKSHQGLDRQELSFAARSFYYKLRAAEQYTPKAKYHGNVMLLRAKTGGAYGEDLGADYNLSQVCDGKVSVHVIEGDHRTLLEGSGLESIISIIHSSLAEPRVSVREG

[8] = molecular target: T3, Fatty acid synthase; assay: inhibition of human FAS-TE enzyme activity – biochemical, endpoint fluorescence intensity, uHTS hits, dose response (AID 624327); assay type: functional;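 also: fluorescence from hydrolysis of an O-methyl fluorescein acyl ester substrate by the enzyme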
[9] = molecular target: T4, Apoptotic protease-activating factor 1 (Homo sapiens, UniProt O14727); assay type: functional
T4 sequence (O14727 whole entry): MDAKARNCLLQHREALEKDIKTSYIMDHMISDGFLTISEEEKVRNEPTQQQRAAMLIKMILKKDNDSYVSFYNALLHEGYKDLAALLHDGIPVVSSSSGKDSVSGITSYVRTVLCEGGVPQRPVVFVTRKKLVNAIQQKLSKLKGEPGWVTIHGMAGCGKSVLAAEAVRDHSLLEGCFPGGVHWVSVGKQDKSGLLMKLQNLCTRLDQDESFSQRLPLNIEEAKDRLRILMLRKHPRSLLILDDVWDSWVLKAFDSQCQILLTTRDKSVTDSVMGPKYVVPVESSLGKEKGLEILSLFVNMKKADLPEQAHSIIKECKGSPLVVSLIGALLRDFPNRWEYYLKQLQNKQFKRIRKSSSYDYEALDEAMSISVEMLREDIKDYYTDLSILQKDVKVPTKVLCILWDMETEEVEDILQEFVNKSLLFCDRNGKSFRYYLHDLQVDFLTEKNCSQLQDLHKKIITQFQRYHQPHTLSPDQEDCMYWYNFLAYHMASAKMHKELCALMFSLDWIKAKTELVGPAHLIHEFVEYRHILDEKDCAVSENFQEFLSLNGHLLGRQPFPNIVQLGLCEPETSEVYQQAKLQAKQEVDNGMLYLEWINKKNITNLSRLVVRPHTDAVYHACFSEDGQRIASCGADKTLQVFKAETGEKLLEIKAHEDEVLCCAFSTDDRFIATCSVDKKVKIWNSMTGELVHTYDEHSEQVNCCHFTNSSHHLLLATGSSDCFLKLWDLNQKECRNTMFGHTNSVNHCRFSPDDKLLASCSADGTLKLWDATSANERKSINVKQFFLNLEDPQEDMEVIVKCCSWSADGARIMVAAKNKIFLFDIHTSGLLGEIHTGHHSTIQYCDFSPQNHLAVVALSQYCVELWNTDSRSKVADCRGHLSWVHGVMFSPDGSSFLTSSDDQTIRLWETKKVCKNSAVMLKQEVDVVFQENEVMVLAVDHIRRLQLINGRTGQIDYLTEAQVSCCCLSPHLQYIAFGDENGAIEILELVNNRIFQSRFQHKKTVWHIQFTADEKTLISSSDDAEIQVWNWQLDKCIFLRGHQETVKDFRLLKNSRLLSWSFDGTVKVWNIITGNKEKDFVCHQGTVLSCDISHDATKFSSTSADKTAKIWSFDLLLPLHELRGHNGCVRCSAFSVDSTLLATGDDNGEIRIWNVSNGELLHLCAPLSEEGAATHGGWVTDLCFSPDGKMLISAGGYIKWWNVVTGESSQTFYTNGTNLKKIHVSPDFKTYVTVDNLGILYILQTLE

[10] = molecular target: T5, Polyadenylate-binding protein 1 (Homo sapiens, UniProt P11940); assay: MLLE domain peptide-binding blockers, IC50 – biochemical, fluorescence polarization, FITC-PAM2 peptide, dose response (AID 602259); assay type: functional; conditions: read-out: IC50_Mean
T5 sequence (P11940 whole entry, the tested form may be a part): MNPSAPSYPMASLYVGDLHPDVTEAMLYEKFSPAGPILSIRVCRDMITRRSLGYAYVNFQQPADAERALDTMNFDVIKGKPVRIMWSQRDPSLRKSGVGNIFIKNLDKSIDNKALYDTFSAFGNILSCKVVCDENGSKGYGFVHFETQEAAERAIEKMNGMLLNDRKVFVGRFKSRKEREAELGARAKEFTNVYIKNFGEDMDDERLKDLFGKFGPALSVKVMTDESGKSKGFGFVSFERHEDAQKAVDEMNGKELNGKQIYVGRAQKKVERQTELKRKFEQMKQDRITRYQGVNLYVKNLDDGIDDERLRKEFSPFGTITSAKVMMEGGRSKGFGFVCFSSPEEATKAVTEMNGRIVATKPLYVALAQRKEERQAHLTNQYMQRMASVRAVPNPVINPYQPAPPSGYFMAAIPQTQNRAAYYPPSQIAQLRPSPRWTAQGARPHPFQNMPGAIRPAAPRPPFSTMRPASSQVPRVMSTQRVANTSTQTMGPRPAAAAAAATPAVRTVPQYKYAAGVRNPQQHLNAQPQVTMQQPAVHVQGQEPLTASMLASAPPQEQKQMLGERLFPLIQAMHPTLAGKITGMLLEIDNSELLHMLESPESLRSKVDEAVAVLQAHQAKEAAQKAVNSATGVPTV

[11] = molecular target: T5, Polyadenylate-binding protein 1; assay: MLLE binding blockers, Cy5 peptide tracer – biochemical, fluorescence polarization, Cy5-PAM2 peptide, secondary, miRNA deadenylation inhibitor project, dose response (AID 602260); assay type: functional; conditions: read-out: IC50_Mean
[12] = molecular target: T6, Calpain-2 catalytic subunit (Sus scrofa, UniProt P43367); assay: m-calpain protease blockers, concentration series – biochemical, fluorogenic peptide substrate, dose response (AID 1420); assay type: functional
T6 sequence (P43367 whole entry): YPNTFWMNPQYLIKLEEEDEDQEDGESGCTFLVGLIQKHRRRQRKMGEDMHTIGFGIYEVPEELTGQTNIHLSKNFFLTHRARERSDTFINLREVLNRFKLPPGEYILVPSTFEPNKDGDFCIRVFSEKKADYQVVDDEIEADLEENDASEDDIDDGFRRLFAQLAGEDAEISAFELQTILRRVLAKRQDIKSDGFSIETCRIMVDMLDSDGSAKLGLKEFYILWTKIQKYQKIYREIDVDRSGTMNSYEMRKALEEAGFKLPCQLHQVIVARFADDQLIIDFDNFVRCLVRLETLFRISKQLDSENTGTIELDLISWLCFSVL

[13] = HIV-1 AD8 envelope cell-cell fusion blockers – cherry-pick, dose response (AID 652062); assay type: functional, cell-based;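 also: luciferase signal from cell-cell fusion driven by HIV-1 clade B AD8 Env; potency is for inhibitors of fusion seen as a drop in luminescence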
[14] = blockers of HIV-1 ZM109 envelope-driven cell-cell fusion – HeLa effector, CEM target cells, luciferase, cherry-pick, dose response (AID 652058); assay type: functional, cell-based;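 also: luciferase signal from HIV-1 Env mediated cell-cell fusion of effector and target cells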
[15] = off-target signal loss in HeLa-CEM21 co-culture – HeLa F-luc CTL cells, cherry-picked, counter-screen for HIV-1 Env fusion inhibitor project, dose response (AID 652040); assay type: functional, cell-based;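 also: potency for signal decrease marking cytotoxic or nonspecific inhibition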
[16] = blockers of HIV-1 envelope-mediated cell-cell fusion – cherry-pick, dose response (AID 652057); assay type: functional, cell-based
[17] = molecular target: T7, Ubiquitin-conjugating enzyme E2 N (Homo sapiens, UniProt P61088); assay type: functional;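 also: Dose-response confirmation in a TR-FRET assay detecting UBC13-driven polyubiquitin chain formation, inhibition measured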
T7 sequence (P61088 whole entry): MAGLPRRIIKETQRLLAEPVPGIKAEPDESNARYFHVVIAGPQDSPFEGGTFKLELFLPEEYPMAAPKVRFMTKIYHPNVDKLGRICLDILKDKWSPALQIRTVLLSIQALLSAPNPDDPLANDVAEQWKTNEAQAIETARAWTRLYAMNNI

[18] = microbe, parasite or virus in culture; assay type: functional; conditions: Mycobacterium tuberculosis
[19] = viability of PTEN-deleted HCT116 cells – cell-based, HCT116 PTEN knockout, dose response (AID 1047); assay type: functional;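 also: HCT116 colon tumor cells with PTEN knocked out; cells exposed to compound for 60 hours before readout; potency for loss of cell viability measured by luminescence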
[20] = viability of HCT116 lacking mutant beta-catenin – cell-based, human colon tumor, dose response (AID 1045); assay type: functional;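 also: HCT116 colon tumor cells with beta catenin knocked out; cells exposed to compound for 60 hours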
[21] = system: H4; assay: Luminescence Cell-Based Dose Response HTS to Identify Activators of 5'UTR Stem-Loop Driven Prion Protein mRNA Translation in H4 Neuroglioblastoma Cells. [Related pubchem assays: 1829 (Project Summary), 1814 (Primary HTS)]; assay type: functional; conditions: Homo sapiens
[22] = NIH-3T3 fibroblast cytotoxicity, dose response, cytotoxicity control, cell-based, fluorescence, Alamar Blue, secondary assay (AID 2327); assay type: functional;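 also: NIH-3T3 mouse fibroblasts cultured with fluconazole at 8 µg/mL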
[23] = Luminescence Cell-Based Dose Retest to Confirm Inhibitors of Cancer Stem Cells. [Related pubchem assays (depositor defined):AID2717, AID2721]; assay type: functional; conditions: Homo sapiens

Cc1cc(C)nc(-n2nc(C)c(Sc3ccc(F)cc3)c2N)n1
EC50 [1]: > 150 µM (not active)
EC50 [2]: > 60 µM (not active)
EC50 [3]: > 150 µM (not active)
EC50 [4]: 2.01 µM (active)
EC50 [5]: > 150 µM (not active)
EC50 [6]: > 67.5 µM (inactive)

Cc1cc(C)n2c(NC3CCCC3)c(-c3cc4ccccc4o3)nc2n1
EC50 [6]: > 67.5 µM (inactive)

CS(=O)(=O)c1ccc(-c2csc(-c3cccnc3)n2)cc1
IC50 [7]: 7.66 µM (active)
IC50 [8]: 10.3 µM (active)

CN(C)S(=O)(=O)c1ccc2oc(SCC(=O)Nc3ccccc3F)nc2c1
IC50 [9]: 7.98 µM (active)

Nc1nc(-c2cccc(F)c2)cs1
IC50 [10]: > 66 µM (inactive)
IC50 [11]: > 66 µM (inactive)

CN(c1ccccc1)S(=O)(=O)c1cccc(C(=O)NC2CCCCC2)c1
IC50 [10]: > 66 µM (inactive)
IC50 [11]: > 66 µM (inactive)

Cc1cc(-c2ccncc2)n2ncc(-c3ccccc3)c2n1
EC50 [6]: > 67.6 µM (inactive)

CCN(CC(O)Cn1c2ccccc2c2ccccc21)S(=O)(=O)c1ccc(C)cc1 (stereo not drawn)
IC50 [12]: 2.61 µM (not active)

COc1ccc2[nH]c(C(=O)Nc3cccc(C)n3)cc2c1
EC50 [6]: > 67.5 µM (inactive)

COc1cc2c(c(OCC(=O)NC(C)C)c1)C(=O)O[C@@H](C)CCCC(=O)CCCCC2
IC50 [10]: 63.7 µM (inactive)
AC50 [13]: 11.3 µM (active)
AC50 [14]: 4.75 µM (active)
AC50 [15]: 5.78 µM (active)
IC50 [11]: > 66 µM (inactive)
AC50 [16]: 4.35 µM (active)

CN(C1CCCCC1)S(=O)(=O)c1ccc(NC(=S)NC(=O)c2cccs2)cc1
IC50 [10]: > 66 µM (inactive)
IC50 [11]: > 66 µM (inactive)

CCN(CC(=O)Nc1ccccc1OC)C(=O)c1ccccc1Sc1ccccc1C#N
IC50 [9]: > 100 µM (inactive)

CCOc1ccc(NC(=S)NC(=O)c2cccnc2)c([N+](=O)[O-])c1
IC50 [10]: > 66 µM (inactive)
IC50 [11]: > 66 µM (inactive)

Cc1cc(C(=O)NC2=NCCS2)cs1
EC50 [6]: > 67.5 µM (inactive)

COCCN(C(=O)CSc1ccc2c(c1)OCCO2)c1c(N)n(CC(C)C)c(=O)[nH]c1=O
IC50 [10]: > 66 µM (inactive)
IC50 [11]: > 66 µM (inactive)

Cc1cc(C(=O)OCC(=O)Nc2cccc([N+](=O)[O-])c2)c(C)o1
IC50 [7]: 17.2 µM (active)
IC50 [8]: 9.82 µM (active)

COc1ccc(C[C@H]2CN3C(=NC[C@H]3Cc3ccccc3)N2CCNC(=O)c2ccc(C)c(Br)c2)cc1
IC50 [17]: > 20 µM (inactive)
IC50 [9]: > 100 µM (inactive)

CCO/C(O)=C1\C(C)=NC(SCC(=O)Nc2nc(C)cs2)=C(C#N)C1c1cccs1 (stereo not drawn)
CC50 [18]: > 40 µM (active)
EC50 [19]: 14.5 µM (active)
EC50 [20]: 16.6 µM (active)

O=C(C1=C[C@@H](c2csc3ccccc23)C[C@@H](OCCCCO)O1)N1CCN(Cc2ccc3c(c2)OCO3)CC1
CC50 [18]: > 40 µM (active)

Cc1cc(C(=O)NC2CCCCC2)c(C)n1-c1ccc(F)cc1
EC50 [21]: 0.455 µM (active)
EC50 [6]: > 67.5 µM (inactive)

C=CCN(CC=C)Cc1nc(N)nc(Nc2ccccc2C)n1
IC50 [12]: < 0.4 µM (not active)

COc1ccc(/C=N/OCC(=O)Nc2ccc3c(c2)OCO3)c(OC)c1
IC50 [12]: > 50 µM (not active)

O=C(CCCN1C(=O)c2ccccc2C1=O)C1=C(NCCO)CC(c2ccccc2)CC1=O (stereo not drawn)
EC50 [22]: > 150 µM (inactive)
IC50 [12]: 30.4 µM (not active)

Cc1cc(N2CCN(c3ccc(C(F)(F)F)cc3[N+](=O)[O-])CC2)c2ccccc2n1
CC50 [18]: > 40 µM (active)
AC50 [23]: 0.726 µM (active)

Cc1cc(NC(=S)N(Cc2ccc(Br)cc2)Cc2ccc(C(=O)O)cc2)ccc1Cl
IC50 [12]: 4.69 µM (not active)

Cn1c(-c2ccc(F)cc2)cnc1NCc1cccc([N+](=O)[O-])c1
IC50 [7]: 9.83 µM (active)
IC50 [8]: 5.28 µM (active)

Fc1ccccc1COc1ccc(Br)cc1CNCc1ccncc1
IC50 [12]: > 50 µM (not active)

CCOC(=O)N1CCC(NC(=O)c2cc3ccccn3n2)CC1
EC50 [6]: > 67.5 µM (inactive)

CCc1nnc(NS(=O)(=O)c2ccc(NC(=S)NC(=O)c3ccc(Br)cc3)cc2)s1
IC50 [12]: 6.7 µM (active)

Reference: ChEMBL document CHEMBL1201862, “PubChem BioAssay data set” (2004)
